Data published in US20230143604A1, “QW DOSING OF GIP RECEPTOR AGONIST PEPTIDE COMPOUNDS AND USES THEREOF” (TAKEDA PHARMACEUTICAL COMPANY LIMITED, priority 2020, published 2023).
Starred links: 1 amine or outer side, 2 acyl side, 3 side chain; linkers in the order of their positions; H or OH if unused. Non-standard residues stand in square brackets, D forms with d. Residues, ends and D or L forms follow the SMILES beside them. Groups on a side chain read outwards from the residue. *: point of attachment. C20 diacid = O=C(O)CCCCCCCCCCCCCCCCCCC(=O)*; C18 diacid = O=C(O)CCCCCCCCCCCCCCCCC(=O)*; C17 diacid = O=C(O)CCCCCCCCCCCCCCCC(=O)*; γGlu = O=C(O)[C@H](CCC(=O)[*:2])N[*:1]; NMeY = CN[C@@H](Cc1ccc(O)cc1)C(=O)O; AEEA = NCCOCCOCC(=O)O; Aib = CC(C)(N)C(=O)O

Tests used:
[1] = Dog plasma protein binding (PPB); format: in vitro ADME; conditions: pH 7.4; fraction unbound; dog serum; read-out: Dog PPB (FUplasma)
Source text: Dog PPB values presented below are obtained essentially as described for Human PPB samples, with the difference being that dog serum is used instead of human serum. Table 10 is provided with the values of (Fu,plasma) as fraction unbound expressed as a percentage compared to the percent bound. i.e. if the value is 0.0123, then the fraction unbound is […], which is 1.23% of the peptide is unbound and 98.77% is bound in plasma. Methods and analysis for performing the dog PPB protocol and results are the same as noted herein as for the Human PPB protocol and analysis.

[2] = Human plasma protein binding (PPB); format: in vitro ADME
Experimental: Stock solutions: (1000 μM) of the peptides are prepared in DMSO.
Human plasma (mixed gender; containing K2-EDTA as anti-coagulant; pre-adjusted to pH 7.4—NB alternative species may be used) is spiked individually with each test peptide (1000 nmol/L), sampled for analysis and then incubated (n=4) at 37° C. in a water bath for 30 minutes. Following the incubation period, the plasma is sampled for analysis, then transferred to ultracentrifugation tubes and centrifuged (n=3) at […] and 4° C. for 3 hours, after which the supernatant is sampled for analysis. An additional aliquot of the supernatant is taken at the end of the centrifugation period to determine the total protein concentration. An aliquot of the incubated plasma will be stored at 4° C. for 3 hours and then sampled for analysis. At the point of sampling, all samples are matrix-matched, treated with ice-cold acetonitrile/methanol (4:1 (vfv)) containing internal standard, centrifuged al 2000 g and 4° C. for 10 minutes and stored prior to LC-MS/MS analysis. An appropriate positive control compound control will be incubated and centrifuged in parallel; control plasma is also centrifuged to generate samples for matrix-matching. Fraction unbound in plasma (Fuplasma) values is determined by comparison of the analyte response in plasma to the analyte response in the supernatant, determined via peak area response ratios.
The samples are analyzed by LC-MS/MS using a 6500 (or equivalent) triple quadrupole mass spectrometer (AB Sciex) coupled to an appropriate Liquid Chromatography (LC) system. Protein binding and stability values are determined via peak area ratios using multiple reaction monitoring (MRM) parameters following compound optimisation. Multiple reaction monitoring (MRM) is a highly sensitive method of targeted mass spectrometry (MS) that can be used to selectively detect and quantify peptides based on the screening of specified precursor peptide-to-fragment ion transitions.

[3] = Solubility in phosphate buffer pH 7.4
In short: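 3 mg of peptide treated with 100 μL portions of 200 mM phosphate buffer pH 7.4, sonicating/vortexing up to 1 min, with further buffer added until fully dissolved. Solubility then quantified by HPLC.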

[4] = Pharmacokinetics in dog after IV and SC dosing; conditions: in vivo
Experimental: Pharmacokinetic (PK) were conducted in dog in order to determine the half-life after IV and SC dosing. The peptide was dissolved in 10% DMSO/0.09% Polysorbate/PBS pH 7.4 to a concentration of 3 nmol/mL and the animal were dose with a volume of 1 mL/kg SC or IV. Blood sample were collected at 0, 0.033, 0.083, 0.25, 0.5, 1, 2, 4, 6, 8, 12, 24, 48, 72, 96, 120, 168, 336 hours for IV dosing and 0.25, 0.5, 1, 2, 4, 6, 8, 12, 24, 48, 72, 96, 120, 168, 336 for SC dosing, EDTA-K2 was used as anticoagulant. The plasma concentration of the peptide was measured using LCMS. Allometric scaling of lipidated peptide pharmacokinetics including T1/2 and MRT is known in the art for rodent to dog and mini pig and to humans. […] See for example, Discovery and Development of Liraglutide and Semaglutide. Knudsen, L. B.; Lau, J. Frontiers in Endocrinology, 2019, vol 10, Article 155.

C57BL/6J mice = experiment: Oral glucose tolerance test (OGTT); format: in vivo; conditions: 3 nmol/kg s.c., 24 hours before glucose loading
In short: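 Peptide or vehicle given s.c. at 0.1, 0.3, 3 or 10 nmol/kg (peptide-dependent), 24 h before oral 50% dextrose at 5 ml/kg unless stated otherwise. Blood glucose read at 0, 15, 30 and 60 min. % inhibition = (1−(AUC cpd−AUC naïve)/(AUC veh−AUC naïve))×100.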

human GLP-1R = molecular target: T1, human GLP-1R (Homo sapiens, UniProt P43220); experiment: Human GLP1R agonist activity, intracellular cAMP accumulation; format: cell-based; conditions: Human GLP1R cAMP EC50, HEK293T (nM), HEK-293T cells overexpressing human GLP-1R, 1 hr
T1 construct: HEK-293T cells overexpressing full-length human GLP-1R; FLAG (N); host or cells: HEK-293T
T1 sequence (P43220 24-463): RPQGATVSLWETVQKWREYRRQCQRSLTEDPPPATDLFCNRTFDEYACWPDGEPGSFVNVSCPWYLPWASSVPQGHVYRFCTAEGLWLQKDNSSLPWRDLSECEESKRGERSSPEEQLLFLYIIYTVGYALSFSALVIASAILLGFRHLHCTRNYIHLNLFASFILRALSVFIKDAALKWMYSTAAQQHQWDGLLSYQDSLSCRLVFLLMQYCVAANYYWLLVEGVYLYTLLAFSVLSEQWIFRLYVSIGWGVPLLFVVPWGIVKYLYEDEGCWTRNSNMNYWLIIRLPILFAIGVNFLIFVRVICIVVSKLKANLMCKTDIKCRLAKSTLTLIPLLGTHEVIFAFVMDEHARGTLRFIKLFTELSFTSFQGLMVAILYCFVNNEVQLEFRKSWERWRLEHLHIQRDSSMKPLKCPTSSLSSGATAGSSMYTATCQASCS
In short: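 Frozen assay-ready cells washed and resuspended at 4×10^5 cells/mL in Krebs Ringer buffer, then incubated with compound 1 hr at room temperature in the dark. cAMP read by HTRF (anti-cAMP antibody, d2-cAMP tracer). Normalised to 1 nm GLP-1 (100%) and DMSO (0%).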

[5] = both sexes, pH 7.4, fraction unbound, human plasma, 1000 nmol/L peptide, ultracentrifugation, read-out: Human PPB (FUplasma)

Structure (SMILES)	fraction unbound at 30 min, 1000 nmol/L [1]	fraction unbound [1]	fraction unbound [2, 5]	solubility ([3]; pH 7.4)	solubility ([3]; pH 7.4, aqueous buffer)	other results
CC[C@H](C)[C@H](NC(=O)[C@H](Cc1ccccc1)NC(=O)[C@@H](NC(=O)CNC(=O)[C@H](CCC(=O)O)NC(=O)C(C)(C)NC(=O)[C@H](Cc1ccc(O)cc1)NC)[C@@H](C)O)C(=O)N[C@@H](CO)C(=O)N[C@@H](CC(=O)O)C(=O)N[C@@H](Cc1ccc(O)cc1)C(=O)N[C@@H](CO)C(=O)N[C@H](C(=O)NC(C)(C)C(=O)N[C@@H](CC(C)C)C(=O)N[C@@H](CC(=O)O)C(=O)N[C@@H](CCCNC(=N)N)C(=O)NC(C)(C)C(=O)N[C@@H](C)C(=O)N[C@@H](CCC(N)=O)C(=O)NC(C)(C)C(=O)N[C@@H](CC(N)=O)C(=O)N[C@@H](Cc1ccccc1)C(=O)N[C@H](C(=O)N[C@@H](CC(N)=O)C(=O)N[C@@H](Cc1c[nH]c2ccccc12)C(=O)N[C@@H](CC(C)C)C(=O)N[C@@H](CC(C)C)C(=O)N[C@@H](C)C(=O)N[C@@H](CCC(N)=O)C(=O)N[C@@H](CCCCNC(=O)COCCOCCNC(=O)COCCOCCNC(=O)CC[C@H](NC(=O)CC[C@H](NC(=O)CCCCCCCCCCCCCCCC(=O)O)C(=O)O)C(=O)O)C(=O)N1CCC[C@H]1C(=O)N[C@@H](CO)C(=O)N[C@@H](CO)C(=O)NCC(=O)N[C@@H](C)C(=O)N1CCC[C@H]1C(=O)N1CCC[C@H]1C(=O)N1CCC[C@H]1C(=O)N[C@@H](CO)C(N)=O)C(C)C)[C@@H](C)CC [Compound 16] (H-[NMeY][Aib]EGTFISDYSI[Aib]LDR[Aib]AQ[Aib]NFVNWLLAQK([AEEA-AEEA-γGlu-γGlu-C17 diacid])PSSGAPPPS-NH2)	≤ 0.00116					fraction unbound at 30 min, 1000 nmol/L [2, 5]: < 0.0012; free unbound peptide in human plasma (in words) ([2]; judged for once per week (QW) dosing): optimum free unbound peptide; solubility ([3]; pH 7.4, aqueous buffer, pH 7.4 Phosphate Buffer - Solubility, 200 mM Phosphate buffer pH 7.4): ≥ 30 mg/mL; solubility ([3]; pH 7.4, solubility in phosphate buffer at pH 7.4, 200 mM phosphate buffer pH 7.4): ≥ 15 mg/mL; MRT ([4]; 3 nmol/kg, read-out: mean residence time (MRT)): 59 h; half-life ([4]; IV 3 nmol/kg, read-out: IV T½ (converted)): 38 h; MRT last ([4]; SC 3 nmol/kg, read-out: SC MRT 0-last): 59 h
CC[C@H](C)[C@H](NC(=O)[C@H](CO)NC(=O)[C@H](Cc1ccc(O)cc1)NC(=O)[C@H](CC(=O)O)NC(=O)[C@H](CO)NC(=O)[C@@H](NC(=O)[C@H](Cc1ccccc1)NC(=O)[C@@H](NC(=O)CNC(=O)[C@H](CCC(=O)O)NC(=O)C(C)(C)NC(=O)[C@H](Cc1ccc(O)cc1)NC)[C@@H](C)O)[C@@H](C)CC)C(=O)N[C@@H](C)C(=O)N[C@@H](CC(C)C)C(=O)N[C@@H](CC(=O)O)C(=O)N[C@@H](CCCNC(=N)N)C(=O)NC(C)(C)C(=O)N[C@@H](C)C(=O)N[C@@H](CCC(N)=O)C(=O)NC(C)(C)C(=O)N[C@@H](CCCCNC(=O)COCCOCCNC(=O)COCCOCCNC(=O)CC[C@H](NC(=O)CC[C@H](NC(=O)CCCCCCCCCCCCCCCCC(=O)O)C(=O)O)C(=O)O)C(=O)N[C@@H](Cc1ccccc1)C(=O)N[C@H](C(=O)N[C@@H](CC(N)=O)C(=O)N[C@@H](Cc1c[nH]c2ccccc12)C(=O)N[C@@H](CC(C)C)C(=O)N[C@@H](CC(C)C)C(=O)N[C@@H](C)C(=O)N[C@@H](CCC(N)=O)C(=O)N[C@@H](CCCNC(=N)N)C(=O)NCC(=O)O)C(C)C [Compound 37] (H-[NMeY][Aib]EGTFISDYSIALDR[Aib]AQ[Aib]K([AEEA-AEEA-γGlu-γGlu-C18 diacid])FVNWLLAQRG-OH)		0.0012	0.001	≥ 15 mg/mL	≥ 30 mg/mL	
CC[C@H](C)[C@H](NC(=O)[C@H](CO)NC(=O)[C@H](Cc1ccc(O)cc1)NC(=O)[C@H](CC(=O)O)NC(=O)[C@H](CO)NC(=O)[C@@H](NC(=O)[C@H](Cc1ccccc1)NC(=O)[C@@H](NC(=O)CNC(=O)[C@H](CCC(=O)O)NC(=O)C(C)(C)NC(=O)[C@H](Cc1ccc(O)cc1)NC)[C@@H](C)O)[C@@H](C)CC)C(=O)N[C@@H](C)C(=O)N[C@@H](CC(C)C)C(=O)N[C@@H](CC(=O)O)C(=O)N[C@@H](CCCNC(=N)N)C(=O)NC(C)(C)C(=O)N[C@@H](C)C(=O)N[C@@H](CCC(N)=O)C(=O)NC(C)(C)C(=O)N[C@@H](CCCCNC(=O)COCCOCCNC(=O)COCCOCCNC(=O)CC[C@H](NC(=O)CC[C@H](NC(=O)CCCCCCCCCCCCCCCCCCC(=O)O)C(=O)O)C(=O)O)C(=O)N[C@@H](Cc1ccccc1)C(=O)N[C@H](C(=O)N[C@@H](CC(N)=O)C(=O)N[C@@H](Cc1c[nH]c2ccccc12)C(=O)N[C@@H](CC(C)C)C(=O)N[C@@H](CC(C)C)C(=O)N[C@@H](C)C(=O)N[C@@H](CCC(N)=O)C(=O)N[C@@H](CCCCN)C(=O)NCC(=O)O)C(C)C [Compound 39] (H-[NMeY][Aib]EGTFISDYSIALDR[Aib]AQ[Aib]K([AEEA-AEEA-γGlu-γGlu-C20 diacid])FVNWLLAQKG-OH)		0.0015	0.0112	≥ 15 mg/mL	≥ 30 mg/mL	
CC[C@H](C)[C@H](NC(=O)[C@H](CO)NC(=O)[C@H](Cc1ccc(O)cc1)NC(=O)[C@H](CC(=O)O)NC(=O)[C@H](CO)NC(=O)[C@@H](NC(=O)[C@H](Cc1ccccc1)NC(=O)[C@@H](NC(=O)CNC(=O)[C@H](CCC(=O)O)NC(=O)C(C)(C)NC(=O)[C@H](Cc1ccc(O)cc1)NC)[C@@H](C)O)[C@@H](C)CC)C(=O)N[C@@H](C)C(=O)N[C@@H](CCCCNC(=O)CNC(=O)CNC(=O)CNC(=O)CNC(=O)CNC(=O)CCCCCCCCCCCCCCCCCCC(=O)O)C(=O)N[C@@H](CC(=O)O)C(=O)N[C@@H](CCCNC(=N)N)C(=O)NC(C)(C)C(=O)N[C@@H](C)C(=O)N[C@@H](CCC(N)=O)C(=O)NC(C)(C)C(=O)N[C@@H](CC(N)=O)C(=O)N[C@@H](Cc1ccccc1)C(=O)N[C@H](C(=O)N[C@@H](CC(N)=O)C(=O)N[C@@H](Cc1c[nH]c2ccccc12)C(=O)N[C@@H](CC(C)C)C(=O)N[C@@H](CC(C)C)C(=O)N[C@@H](C)C(=O)N[C@@H](CCC(N)=O)C(=O)N[C@@H](CO)C(=O)N1CCC[C@H]1C(=O)N[C@@H](CO)C(=O)N[C@@H](CO)C(=O)NCC(=O)N[C@@H](C)C(=O)N1CCC[C@H]1C(=O)N1CCC[C@H]1C(=O)N1CCC[C@H]1C(=O)N[C@@H](CO)C(=O)O)C(C)C [Compound 40]	0.0004					Human PPB (FUplasma) ([2]; fraction unbound, human plasma, 1000 nmol/L peptide, ultracentrifugation): <0.002; Oral Glucose Tolerance Test Percent decrease in blood glucose AUC (%) over 60 mins (C57BL/6J mice): 102% (3 nmol/kg); EC50 (human GLP-1R): 5.6 nM
